Data set [1] concerns HSV-1. As to the kind of experiment: Antiviral activity in 3D organotypic model of human gingiva (OTG). Format: cell-based, herpes simplex virus type 1. As to the method: Protocol was described previously ([34]). Briefly, to prepare 3D cultures, 150,000 gingival fibroblasts suspended in 10% FBS in DMEM were mixed with 2.4 ml of ice-cold Matrigel® (Corning) (final concentration 7 mg/ml) and placed in the middle of 12-well cell culture inserts (Greiner). Three days later, 1 × 10^6 TIGK cells suspended in EPM1 were added to the top of the insert. On the ninth day after the start of the procedure, the old culture medium was removed and EPM2 was added to the bottom of the insert. The epithelial layer on the top was exposed to the air, which promotes epithelial differentiation and then stratification. About 8–10 days after air-liquid interphase, 3D cultures of gingiva were used for further experiments.
The apical surface of OTG model was washed three times with PBS and then inoculated with 100 μl of viral stock (TCID50 400 /ml) in the presence of DAL-PEG-LK6 or CPP1-PEG-LK6 (15 μg/ml) for 2 h at 4°C. Following incubation, the unbound HSV-1 was removed by washing with PBS for 10 min at 37°C, and the OTG cultures were maintained at an air-liquid interface for the rest of the experiment. To determine viral yield, 120 μl of PBS was applied to the apical surface of the OTG, and harvested for DNA isolation after 10 min of incubation at 37°C.
Briefly, cell inserts were fixed in 10% formaldehyde at 4°C for 1 h. After embedding in paraffin, 3D cultures were cut into 5 μm sections and stained with H&E solution. For immunohistochemical analysis, slides were incubated for 1 h at room temperature in blocking buffer (5% normal goat serum, 0.1% saponin in PBS) and stained with primary antibodies anti-HSV-1 (1:100, 1% normal goat serum, 0.1% saponin in PBS; Abcam) and secondary antibodies: goat anti-rabbit conjugated with Alexa Fluor 488 (1:2000; Cell Signaling). Finally, cell nuclei were stained with ProLong Antifade Mounting Medium with DAPI. Slides were visualized with EVOS FL Cell Imaging System (Thermo Fisher Scientific).
(§1) Viral DNA was isolated from the conditioned media or the apical washes of inserts (OTG model) using Viral DNA/RNA Isolation Kit (A&A Biotechnology). The virus yield assessed by quantitative real-time PCR (qPCR). The reaction was carried out in a CFX96 Touch Real-Time PCR Detection System (Bio-Rad), in a 10 μl reaction mixture consisting of TaqMan^TM Fast Advanced Master Mix, TaqMan^TM Microbe Detection assay against HSV-1 (Vi04230116_s1) and 1 μl of viral DNA. The temperature profile was 10 s at 95°C, followed by 40 cycles of 3 s at 95°C and 20 s at 60°C. DNA quantification standards were prepared. In summary, a fragment of viral DNA was amplified using the primers listed above and cloned into the pTZ57R/T plasmid using the InsTAclone PCR cloning kit. The plasmid was propagated in E. coli, purified with the GeneJet Plasmid Miniprep Kit, and digested with the EcoR1 restriction enzyme. The number of copies per mL was estimated after the concentration of linearized DNA was assessed spectrophotometrically.

For data set [2], the system named is HSV-1. As to the kind of experiment: Virion integrity assay. Format: cell-based, herpes simplex virus type 1. To be noted: virions pre-treated 1 h at RT with 15 μg/ml, then TIGKs infected; qPCR up to 48 h p.i.; compared to Triton X-100. The procedure: HSV-1 samples were incubated with DAL-PEG-LK6 and CPP1-PEG-LK6 (15 μg/ml) for 1 h at room temperature on a shaker. Additionally, Triton X-100 was used as a positive control. Next, the mixtures were diluted to decrease tested molecules concentrations (0.65 ng/ml) and were used to infect TIGKs monolayers. After 48 h of incubation, supernatants were collected, and the quantity of HSV-1 DNA copies was determined using qPCR.
as §1, with “The plasmid was propagated in E. coli, purified with the GeneJet Plasmid Miniprep Kit, and digested with the EcoR1 restriction enzyme.” left out

Data set [3] in a line: Analytical RP-HPLC retention time. Particulars: Phenomenex Jupiter 4 μ Proteo 90 Å, 250 × 4.60 mm, listed as basic physicochemical characteristic. As to the method: The synthesized compounds were then purified by reverse-phase high-performance liquid chromatography (RP-HPLC) on a Waters system (Phenomenex Jupiter 4 μ Proteo 90 Å column, 250 × 10 mm). A linear gradient from 10% to 80% of solvent B over 60 min (Solvent A: 0.1% TFA in water; Solvent B: 80% acetonitrile in Solvent A) was employed with a flow rate 5 ml/min. The homogeneity of the final peptide fractions was analyzed using a Shimadzu HPLC System (Shimadzu Europe GmbH, Duisburg, Germany) equipped with a Phenomenex Jupiter 4 μ Proteo 90 Å column, 250 × 4.60 mm. The mass spectra of the synthesized peptides were recorded using a Biflex III MALDI-TOF mass spectrometry (Bruker, Mannheim, Germany) with α-cyano-4-hydroxy-cinnamic acid (CCA) or 2,5-dihydroxybenzoic acid (DHB) used as the matrix.

Molecules are shown by their SMILES. In brackets after ≈: the same amount, converted by molar mass. Square brackets hold non-standard residues; d marks the D form. Peptide text beside a SMILES is read from it. AEEA = NCCOCCOCC(=O)O

Protocol for in vitro: The viability of Vero E6 and TIGKs cells was examined by the XTT Cell Viability Assay kit (Biological Industries, USA). Briefly, cells were treated with indicated concentrations of the peptide conjugates for 48 h at 37°C. Next, the fresh medium was added to the cells and 50 μl of the activated XTT reagent [2,3-bis(2-methoxy-4-nitro-5-sulphenyl)-2H-tetrazolium-5-carboxanilide] was added and further incubated for 2 h at 37°C. Absorbance was measured at a wavelength of 480 nm using FlexStation 3 microplate reader (Molecular Device, Wokingham, UK). The results were expressed normalized against a control of untreated cells (100% viability). To assess the effect of peptide conjugate on the integrity of the plasma membrane, the LDH release assay was performed using the CytoTox96 nonradioactive cytotoxicity assay kit (Promega, Madison, WI, USA) according to the manufacturer's instructions. Cytotoxicity was calculated with the formula: % cytotoxicity = 100 × (experimental LDH release/ maximum LDH release), where maximum LDH release is after lysis solution addition (Triton X-100). Relative amounts of LDH release were measured (absorbance at 490 nm) using FlexStation 3 microplate reader (Molecular Device, Wokingham, UK). […]
Data were expressed as means ± SD. Statistical significance was determined using unpaired t-test, one-way ANOVA, and/or two-way ANOVA for direct comparisons between single groups. […]

`CC[C@H](C)[C@H](NC(=O)COCCOCCNC(=O)[C@@H](NC(=O)[C@H](CC(C)C)NC(=O)[C@H](Cc1ccc(O)cc1)NC(=O)[C@@H](NC(=O)[C@H](Cc1ccccc1)NC(=O)[C@@H]1CCCN1)C(C)C)[C@@H](C)CC)C(=O)N[C@@H](CCCCN)C(=O)N[C@@H](CCCCN)C(=O)N[C@H](C(=O)N[C@@H](CC(C)C)C(=O)N[C@@H](CO)C(=O)N[C@@H](CCCCN)C(=O)N[C@H](C(=O)N[C@@H](CCCCN)C(=O)N[C@@H](CCCCN)C(=O)N[C@@H](CC(C)C)C(=O)N[C@@H](CC(C)C)C(=O)N[C@@H](CCCCN)C(N)=O)[C@@H](C)CC)[C@@H](C)CC` [CPP1-PEG-LK6] (H-PFVYLI[AEEA]IKKILSKIKKLLK-NH2) gave a CC50 at 48 h in the data set “in vitro” of 23.4 mg/L (≈ 9.63 µM). Also, the “reduction of viral yield in OTG at 48 h” value in the data set on HSV-1 [1] (15 μg/ml during inoculation 2 h at 4°C, apical washes, qPCR, 48 h post-viral inoculation) is 3 logs. In addition, the “reduction of viral yield in OTG at 72 h” value in the data set on HSV-1 [1] (15 μg/ml during inoculation 2 h at 4°C, apical washes, qPCR, 72 h post-viral inoculation) came out at 2 logs. Also, the “morphology of epithelial cells in OTG (H&E)” value in the data set on HSV-1 [1] (15 μg/ml, H&E stained sections, Figure 5A) is listed as “no changes in the morphology of epithelial cells”. For the same molecule, the “HSV-1-positive cells in OTG sections (immunohistology)” value in the data set on HSV-1 [1] (15 μg/ml, anti-HSV-1 immunofluorescence, Figure 5B) is given as “absent”. Also, in the data set with HSV-1 [2], the “effect on HSV-1 virion integrity” value was “no inhibitory effect”. Also, in data set [3], the Rt was determined as 25.247.

The values above are taken from article PMC11215077, “Antiviral activity of temporin-1CEb analogues against gingival infection with herpes simplex virus type 1” (Frontiers in Oral Health, 2024).
